Tested on: S. aureus Oxford, S. aureus WCUH29, S. pneumoniae 1629, S. pneumoniae N1387, S. pneumoniae ERY 2
Assay: MIC of test compounds against various organisms
Assay type: cell-based
Conditions: against one or more of S. aureus Oxford
Protocol: The MIC (μg/ml) of test compounds against various organisms was determined: S. aureus Oxford, S. aureus WCUH29, S. pneumoniae 1629, S. pneumoniae N1387, S. pneumoniae ERY 2.

In the case of CCCCCCCNC1CCN(C[C@H](O)c2ccnc3ccc(OC)cc23)CC1C(N)=O (mixture of isomers) [Example 4, cis-3-(R/S)-Aminocarbonyl-4-(S/R)-heptylamino-1-[2-(R)-hydroxy-2-(6-methoxyquinolin-4-yl)]ethylpiperidine dioxalate], the MIC is reported as ≤ 1 µg/mL.

From patent US7001913B1, “Aminopiperidine derivatives as antibacterials” (SmithKline Beecham P.L.C., priority 1999, dated 2006)
